Earlier results, collected in paper PMC3653294 (Bioorganic & medicinal chemistry, 2013).

Test system: liver fibrosis

In the case of CCOc1nc2cccc(C(=O)O)c2n1Cc1ccc(-c2ccccc2-c2nnn[nH]2)cc1 [Candesartan], the “effect on liver fibrosis” value is listed as “decreases liver fibrosis”.
